Experimental findings from patent US20170100383A1, “TOPICAL FORMULATIONS FOR PREVENTING SKIN INFECTION” (Practical Solution, Inc., priority 2015, published 2017) are described below.

Common to all, as to type: cell-based
Holding throughout (conditions): 48 h

In experiment [1] the test system is Candida albicans ATCC10231. Briefly: Broth microdilution inhibitory rate (MIC assay) against Candida albicans. Here is the method: (§1) Staphyloccocus aureus strain ATCC 6538, Bacillus subtilis ATCC9372 or Candida albicans ATCC10231 each (0.1 ml of a bacterial suspension having 10^8 cfu/ml bacteria) were inoculated into the mixture. […] Test tubes containing the mixtures were placed in a 37° C. incubator and incubated for 48 hours. The concentration of bacterial cells in each test tube was measured. The inhibitory rates were calculated as below:
(§2) [(Positive control average colony count−Test average colony count)/Positive control average colony count]×100%
(§3) Positive controls are the tubes having broth and microorganisms but no antimicrobial agents.

Experiment [2] relates to Staphylococcus aureus ATCC6538. Briefly: Broth microdilution inhibitory rate (MIC assay) against Staphylococcus aureus. Here is the method:
as §1, §2, §3
A general note: Broth dilution looks for growth in wells or tubes with falling amounts of substance.

The test system of experiment [3] is Bacillus subtilis ATCC9372. Here is the method:
as §1, §2, §3

[4] abbreviates: dilution 1* of initial concentration (CHG 5 g/L, CPC 0.5 g/L), 37° C.
Setting [5] is: dilution 1/10 of initial concentration (CHG 5 g/L, CPC 0.5 g/L).
Setting [6] is: dilution 1/100 of initial concentration (CHG 5 g/L, CPC 0.5 g/L).
Setting [7] is: dilution 1/1000 of initial concentration (CHG 5 g/L, CPC 0.5 g/L).
Where [8] appears, read: dilution 1/2000 of initial concentration (CHG 5 g/L, CPC 0.5 g/L).
Setting [9] is: dilution 1/4000 of initial concentration (CHG 5 g/L, CPC 0.5 g/L).
Where [10] appears, read: dilution 1/8000 of initial concentration (CHG 5 g/L, CPC 0.5 g/L).

Read-outs that look alike come from different tables or passages of the source.

Regarding `N=C(NCCCCCCNC(=N)NC(=N)Nc1ccc(Cl)cc1)NC(=N)Nc1ccc(Cl)cc1.O=C(O)[C@H](O)[C@@H](O)[C@H](O)[C@H](O)CO.O=C(O)[C@H](O)[C@@H](O)[C@H](O)[C@H](O)CO` [CHG, chlorhexidine digluconate], the “Anti-microbial activity (inhibitory rate)” value in experiment [1] (setting [4]) was determined as 100%; in experiment [1] (setting [5]), 100%; in experiment [1] (setting [6]), 100%; in experiment [1] (setting [7]), 97.76%; in experiment [1] (setting [8]), 93.92%; in experiment [1] (setting [9]), 90.41%. The “Anti-microbial activity (inhibitory rate)” value in experiment [2] (setting [4]), in experiment [2] (setting [5]), in experiment [2] (setting [6]), in experiment [2] (setting [7]), in experiment [2] (setting [8]) and in experiment [2] (setting [9]) was 100% each time. For the same molecule, the “Anti-microbial activity (inhibitory rate)” value in experiment [2] (setting [10]) turned out to be 78.43%; in experiment [3] (setting [4]) it was 100%; in experiment [3] (setting [5]), 100%; in experiment [3] (setting [6]), 100%; in experiment [3] (setting [7]), 100%; in experiment [3] (setting [8]), 100%. Besides, the “Anti-microbial activity (inhibitory rate)” value in experiment [3] (setting [9]) is recorded as 100%; in experiment [3] (setting [10]), 99.99%; in experiment [3] (dilution 1/16000 of initial concentration (CHG 5 g/L, CPC 0.5 g/L)), 99.50%; in experiment [3] (dilution 1/32000 of initial concentration (CHG 5 g/L, CPC 0.5 g/L)) it was 90.83%.
